# Measured values as given in US20150283127A1, “SAQUINAVIR-NO FOR IMMUNOMODULATION” (ONCONOX APS, priority 2012, published 2015).
# Key:
# rat LNC = experiment: Cytokine generation (ELISA) in ConA-stimulated rat LNC; type: cell-based; conditions: 24 hours, vs untreated control cells
# Text: Experimental animals (C57BL/6 mice, BALB/c mice and Dark Agouti rats) were obtained from the Animal House Facility of the Institute for Biological Research “Sinisa Stanković”, Belgrade, Serbia. Spleen cells (SPC) were isolated from murine spleens and lymph node cells (LNC) were obtained from rat cervical lymph nodes of untreated animals. Draining lymph node cells (DLNC) were obtained from popliteal lymph nodes 8-10 days after immunization of rats with myelin basic protein (guinea pig MBP, kind gift from professor Alexander Fluegel, University of Goettingen, Germany) and complete Freund's adjuvant (CFA, Difco, Detroit, Mich.). […] Obtained purity of CD4 population was more than 97% as determined by flow cytometry. […]
# Cytokine concentration in cell culture supernatants was determined by sandwich ELISA using MaxiSorp plates (Nunc, Rochild, Denmark) and anti-cytokine paired antibodies according to the manufacturer's instructions. Samples were analyzed in duplicate for murine/rat IL-17, murine IL-10, murine TNF, murine IL-4 (eBioscience), murine IFN-γ, rat IFN-γ, rat IL-4 (R&D, Minneapolis, Minn.), rat IL-10 and rat TNF (BD Biosciences). The results were calculated using standard curves made on the basis of known concentrations of the appropriate recombinant cytokines. […]
# murine CD4+ cells = experiment: Viability of murine CD4+ cells; type: cell-based, mouse; conditions: 24 hours; effect less than on cytokine generation
# Method: In order to assess the viability of SPC, LNC, DLNC and SCC by mitochondrial activity assay we used the mitochondrial-dependent reduction of 3-(4,5-dimethylthiazol-2-yl)-[…] (MTT) to formazan. At the end of appropriate treatments, SPC and LNC were collected in tubes, spun down, supernatants removed and the cell pellets dissolved in […] MTT (Sigma-Aldrich) solution. Incubation with MTT lasted for 30 minutes at 37° C. and cells were centrifuged once more. DMSO was added to the pellets to dissolve the formazan crystals. The absorbances in MTT assay were measured at […], with a correction at 690 nm, using an automated microplate reader (LKB 5060-006, LKB, Vienna, Austria).
# CD4+ cells were purified from C57BL/6 SPC and stimulated with anti-CD3 and anti-CD28 antibodies in the presence of various concentrations of Saq-NO for 24 hours. The influence of Saq-NO on cytokine generation was compared to its influence on CD4+ cell viability and to the influence of Saq on the same parameters. […] Thus, Saq-NO directly affects T cell cytokine production.
# DLNC = experiment: Viability of rat DLNC (MTT); type: cell-based; conditions: DLNC restimulated with MBP
# Text: Experimental animals (C57BL/6 mice, BALB/c mice and Dark Agouti rats) were obtained from the Animal House Facility of the Institute for Biological Research “Sinisa Stanković”, Belgrade, Serbia. Spleen cells (SPC) were isolated from murine spleens and lymph node cells (LNC) were obtained from rat cervical lymph nodes of untreated animals. Draining lymph node cells (DLNC) were obtained from popliteal lymph nodes 8-10 days after immunization of rats with myelin basic protein (guinea pig MBP, kind gift from professor Alexander Fluegel, University of Goettingen, Germany) and complete Freund's adjuvant (CFA, Difco, Detroit, Mich.). The organs were mechanically disrupted, passed through 40-μm nylon mesh filter and the resulting suspension was collected by centrifugation. […] Obtained purity of CD4 population was more than 97% as determined by flow cytometry. […]
# In order to assess the viability of SPC, LNC, DLNC and SCC by mitochondrial activity assay we used the mitochondrial-dependent reduction of 3-(4,5-dimethylthiazol-2-yl)-2,5-[…] bromide (MTT) to formazan. […] The absorbances in MTT assay were measured at […], with a correction at 690 nm, using an automated microplate reader (LKB 5060-006, LKB, Vienna, Austria).
# Next, we determined the influence of Saq-NO on encephalitogen-specific generation of IFN-g and IL-17. […]
# [1] = mice subjected to the treatment; cited from earlier work
# HIV = conditions: cited from earlier work
structure (smiles),measurement,setting,value
"CC(C)(C)NC(=O)C1C[C@@H]2CCCC[C@@H]2CN1CC(O[N+](=O)[O-])[C@H](Cc1ccccc1)NC(=O)C(CC(N)=O)NC(=O)c1ccc2ccccc2n1 (some centres unmarked) [Saq-NO, nitric ester of Saquinavir]","Release of the examined cytokines IFN-g, IL-17, IL-10 and TNF",rat LNC,dose-dependently inhibited
same,CD4+ cell viability,murine CD4+ cells,statistically significantly inhibited
same,DLNC viability,DLNC,much less than its influence on IFN-g and IL-17 production
same,Toxicity in mice,[1],no toxicity
same,Anti-HIV potency relative to parental drug,HIV,retained
